Measurements reported in paper PMC5115179 (Pharmacology Research & Perspectives, 2016).
Like-named read-outs stand apart in the source and are kept apart here.

Experiments:
GHB receptor = target: GHB receptor; design: method as in Molnár et al. 2006; details: ref Molnár et al. 2006; cited from earlier work
rat [1] = tested on: rat; design: method as in Snead III, 1996; details: 100-500 mg/kg i.p., ref Snead III, 1996; cited from earlier work
rat [2] = tested on: rat; design: method as in Colombo et al., 1995; details: rat, 12.5, 25, 50 mg/kg i.p.; ref Colombo et al., 1995; cited from earlier work
[3] = Metabolite formation kinetics in MLMs; assay type: in vitro ADME; details: mouse liver microsomes
Description: Microsomal incubations were conducted as described above with modifications. […] The K m was calculated using nonlinear regression in Graphpad Prism. Due to the lack of authentic standard and relatively short rate of parent disappearance, the maximum formation velocity (V max) could not be determined for either metabolites.

In the case of `O=C(O)/C=C1\CCCc2ccccc2C1O` (centres unmarked) [NCS‐382, 6,7,8,9‐tetrahydro‐5‐hydroxy‐5H‐benzo‐cyclohept‐6‐ylideneacetic acid], the Ki (GHB receptor) is listed as 1200 nM, the “two chemically induced models for absence seizures” value (rat [1]) is listed as “NCS-382 was protective against two chemically induced models for absence seizures” and the “discriminative stimulus effects of GHB” value (rat [2]) is listed as “Blockade of the discriminative stimulus effects of gamma-hydroxybutyric acid (GHB) by the GHB receptor antagonist NCS-382”. For the same compound, the Km ([3]; 120 min, read-out: Km for dehydrogenation) was 29.5 ± 10 µM and the Km ([3]; saturation not obtained, read-out: Km for glucuronidation) was > 100 µM.
